Data from patent US10869884B2, “Cyclodextrin based polymers, methods, compositions and applications thereof” (ATEN PORUS LIFESCIENCES, priority 2016, dated 2020).

Columns and labels:
Assay type in all cases: in vivo, BALB/c mice
[1] = system: ADR-induced nephropathy; test: Serum blood urea nitrogen (BUN) in the Adriamycin nephropathy (FSGS) model; settings: ADR mice, 40 mg/kg/day s.c., end of study
Procedure: (§1) Experimental Protocol: 6 animals (BALB/c mice) per group of 6-7 weeks of age were used. Nephropathy was induced in all animals, except group 1 (normal control), with Adriamycin (ADR, 11 mg/kg, i.v., single dose) at dose volume of 6 ml/kg. Normal saline (0.9%) was used as vehicle for the reference and test compounds. Treatment was started 24 hours after Adriamycin injection. Groups of animals (n=6) were treated subcutaneously with vehicle, HBCD, Polymer A and Polymer B at the doses and regimens shown in FIG. 10, for 10 weeks. At the end of the study, animals were sacrificed by CO2 exposure, blood samples and kidneys were collected for the estimation of various biomarkers in serum.
Serum Analysis: Serum samples were analysed in an Automated Clinical Chemistry Analyzer EM360, Transasia Bio-medicals Ltd, for albumin and creatinine. • (a) Blood Urea Nitrogen (BUN) assay to assess the level of kidney function was analysed by the GLDH Urease method using an Erba standard BUN kit. (FIG. 13). Administration of ADR to induce nephropathy increased blood urea nitrogen levels as one would expect from an impaired kidney. […] The combination of data from these studies serves to illustrate the potential of the polymers of the present disclosure as treatment options for kidney disease compared to known cholesterol clearance compounds.

[2] = Body weight in the Adriamycin nephropathy (FSGS) dose response/frequency study; settings: ADR mice, 40 mg/kg/day s.c., 10 weeks, compared to normal mice
Procedure: as §1
Body weights: Body weights were measured at the beginning of study and weekly throughout for ten weeks (FIG. 11) to provide a general assessment of rodent health after therapy.

[3] = system: ADR-induced nephropathy; test: Kidney histopathology (H/E and PAS staining, mesangial expansion) in the Adriamycin nephropathy model; settings: ADR mice, 40 mg/kg/day s.c. (group 3), 10 weeks
Procedure: as §1
Histopathology: At the end of the study, kidney samples were collected from each animal, fixed in 10% NBF (Neutral Buffered […]) and subjected to histopathology. Periodic acid-Schiff (PAS) or Hematoxylin and Eosin (H/E) staining of 4 micron-thick tissue sections was performed according to the standard protocols. Mesangial expansion area was determined based on the area of PAS staining.

With hydroxypropyl β-cyclodextrin [HBCD] the “serum blood urea nitrogen (BUN) level” value [1] was “BUN levels return to that found for the control group”, the mean body weight [2] was “largest drop in mean body weight without any substantial rebound” and the “kidney histopathology (glomeruli appearance)” value [3] was “glomeruli that are normal in appearance”.
